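Step 1: Grow cells in 96-well plates. Step 2: Expose to compound for 48 hours at 5 concentrations. Step 3: Interpolate endpoints linearly; if unreached, use highest concentration. At the GI50, growth is halved. TGI: concentration producing complete growth inhibition.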
Key:
Test in all cases: NCI anticancer screen, dose series, 48 h
[1] = tested on: UO-31 renal
[2] = tested on: OVCAR-3 ovarian
[3] = tested on: SK-OV-3 ovarian
[4] = tested on: HCC-2998 colon
[5] = tested on: 786-0 renal
[6] = tested on: MDA-MB-435
[7] = tested on: OVCAR-5 ovarian
[8] = tested on: HL-60(TB) leukemia
[9] = tested on: ACHN renal
[10] = tested on: IGROV1 ovarian

Structure (SMILES)	GI50 [1] [µM]	TGI [1] [µM]	GI50 [2] [µM]	TGI [2] [µM]	GI50 [3] [µM]	TGI [3] [µM]	GI50 [4] [µM]	TGI [4] [µM]	GI50 [5] [µM]	TGI [5] [µM]	GI50 [6] [µM]	TGI [6] [µM]	GI50 [7] [µM]	TGI [7] [µM]	GI50 [8] [µM]	TGI [8] [µM]	GI50 [9] [µM]	TGI [9] [µM]	GI50 [10] [µM]	TGI [10] [µM]
COc1cccc(NCc2nnc(Nc3ccc(Cl)cc3)c3ccccc23)c1	0.608	5.28	1.65	10	1.13	8.19	3.44	8.79	2.22	7.62	0.739	4.38	3.38	11.8	3.78	13.1	1.56	24.4	0.904	6.3
COc1cc([C@@H]2c3cc4c(cc3C(O[C@@H]3O[C@@H]5CO[C@@H](c6cccs6)OC5[C@H](O)[C@H]3O)C3COC(=O)[C@@H]32)OCO4)cc(OC)c1O (some centres undefined)	0.179	1.14	0.248	1.19	0.102	0.81	0.109	0.446	0.0336	0.216	0.261	2.12	0.382	5.3	0.0104	0.0527	0.0269	0.711	0.228	5.13
COc1ccc(-n2cc(-c3cc(OC)c(OC)c(OC)c3)[nH]c2=S)cc1OC	> 100	> 100	> 100	> 100	> 100	> 100	76.8	> 100	> 100	> 100	> 100	> 100	> 100	> 100	> 100	> 100	> 100	> 100	> 100	> 100
O=C(C[C@@H](C(=O)NCc1cccc(C(F)(F)F)c1)N1C(=O)[C@@H](N2C(=O)OC[C@@H]2c2ccccc2)[C@H]1/C=C/c1ccccc1)NC1CCN(Cc2ccccc2)CC1	13.5	55.3	10.4	25.1	15.3	28.6	6.2	21.2	6.51	22.6	2.45	7.66	13	29.9	10.4	33.8	31.2	> 100	13.3	32.4
C=C1C(=O)O[C@H]2[C@H]1CC/C(COC(=O)/C=C\C(=O)NCc1ccc(Cn3c(=O)sn(-c4ccc(C#N)cc4)c3=O)cc1)=C\CC[C@@]1(C)O[C@@H]21	0.468	1.07	0.306	0.953	4.02	10.5	0.901	1.76	0.727	1.52	0.744	1.5	0.868	1.84	0.961	3.49	0.545	1.14	0.592	1.3
CNC1C(=O)C(C)C(O)(C(CC(C)C(O)/C=C/C=C/CNC(=O)C(C)(C)C(O)\C(C)=C/C=C\C=C\Cc2cnc(C)o2)OC)C12C(=O)OC2COC (centres undefined) (tested in a mixture with another compound)		67.3		34.6		> 100		41.7		73.7		> 100		> 70.2		3.48		> 43.2		> 26.2
Cn1cc(C2=C(c3cn(C)c4c(N)cccc34)C(=O)NC2=O)c2ccccc21	1.1	10.5	0.507	1.45	1.22	> 20.1	6.01	> 25	2	> 25	0.0872	> 25	6.41	> 22.1	1.05	7.28	1.34	> 23.9	4.2	> 19.6
NCCCCn1c2c(c3ccccc3c1=O)C(=O)c1ccccc1-2	0.123	1.45	0.502	4.22	1.04	9.81	0.484	1.92	0.0639	0.573	0.717	2.28	0.494	1.37	0.0382	0.0919	0.0161	0.123	0.314	
CCOC(=O)c1c(C)n(Cc2ccc(OC)cc2)c2c1cc(O)c1[nH]c3c(c12)CCCC3	1.84	4.05	3.73	18.6	9.47	51.3	2.39	14.5	13.1	49.4	15.9	82	2.39	17.5	3.03	> 100	6.72	35.6	3.76	20.5
O=C(CCCSc1nc(-c2ccc(Cl)cc2)cc(-c2ccc(Cl)cc2)n1)NO	0.32	2.35	0.413	2.14	2.02	11.8	2.78	10.3	0.971	13.1	2.81	17	1.42	9.01	1.61	8	0.387	10.4	1.15	11.2
CCCCNC(=O)NS(=O)(=O)c1ccc(N2N=C(c3ccc(C)cc3C)CC2c2ccc(N(C)C)cc2)cc1 (centres undefined)	4.57	> 100	2.5	5.72	8.16	> 100	2.25	5.1	5.45	> 100	2.55	7.59	5.24	96.1	3.48	13.6	3.93	> 100	4.87	> 100
O=c1[nH]c(=O)n(C2CC(O)C(CS)O2)cc1F (centres undefined)		> 100		> 100		> 100		> 100		> 100		> 100		> 100		> 100		> 92.4		> 100
COc1cc(Cn2c(-c3ccccc3)cc3c2-c2oncc2CC3)cc(OC)c1OC	3.23	> 100	0.372	1.65	1.53	> 100	2.21	> 100	1.52	39.8	0.248	0.905	6.46	> 100	0.32	1.36	0.961	> 100	2.64	> 100
